Assay results as given in paper PMC9500755, “Albumin-Mediated Size Exclusion Chromatography: The Apparent Molecular Weight of PSMA Radioligands as Novel Parameter to Estimate Their Blood Clearance Kinetics” (Pharmaceuticals, 2022).
Values joined by “and” are separate entries in the source; they are usually repeats but may differ in a detail not shown here. Equal values may be shown once.

Legend:
[1] = molecular target: T1, human serum albumin (HSA) (Homo sapiens, UniProt P02768); experiment: Albumin-mediated size exclusion chromatography (AMSEC); type: in vitro ADME; settings: for tR,AMSEC (retention time in AMSEC run): 177Lu-labeled ligand, mobile phase 700 µM HSA in PBS pH 7.4, Superdex 75 Increase, corrected for detector offset, normalized to column 1; for Retention factor k: fraction of time the radioligand is complexed to HSA during the AMSEC run, Equation (2); for MWapp,raw (raw apparent molecular weight): from tR,AMSEC by column calibration, 700 µM HSA in PBS pH 7.4; for MWapp,norm. (normalized apparent molecular weight): from tR,norm. by column calibration; for tR,norm. (normalized retention time): normalized with tR,blank, tR,HSA and tR,acetone, Equation (5); for MWapp,raw in percentage of the MWapp,raw of rhPSMA-7.3: rhPSMA-7.3 = 100%
T1 construct: purchased Biowest, Nuaillé, France
Experimental: All size exclusion chromatographic (SEC) experiments were carried out using the above-mentioned HPLC system equipped with a Superdex 75 Increase 10/300 GL gel filtration size exclusion column (fractionation range 70–3 kDa, GE Healthcare, Uppsala, Sweden). Eluents at room temperature, a constant flow rate of 0.8 mL/min, and an acquisition time of 35 min were generally applied. The column was calibrated as recommended by the manufacturer using a commercially available set of proteins (Gel Filtration LMW Calibration Kit, GE Healthcare, Buckinghamshire, UK). Retention times of calibration proteins and calculated calibration parameters are given in the Supplementary Materials (Table S3). UV signal detection occurred at 280 nm.
All retention times of radio signals were corrected for the offset between the UV-vis detector and radio-detector (Δt = 0.084 min). Throughout the development of the AMSEC method, three gel filtration columns of the same type were used for experiments (most data were acquired using column 1). As calculations were based on absolute empirical retention times that inherently differed slightly from column to column, all retention times determined on column 2 and column 3 were mathematically converted to an equivalent retention time on column 1 using the columns’ calibration parameters. A detailed description of these calculations is provided in the Supplementary Materials.
All numerical retention times explicitly given in running text or tables and plotted in diagrams are already corrected for the offset between UV-vis and radio-detector and, if initially determined on columns 2 or 3, converted to the equivalent retention time on column 1 (for detailed information, see Equations (S1) and (S2) and Table S1 in the Supplementary Materials).
AMSEC runs were executed with a solution of HSA (Biowest, Nuaillé, France) in PBS (pH 7.4) at physiological concentration (700 µM) as a mobile phase. Upon injection of approximately 1.0 MBq (5–10 µL) of a radioligand, the elution profile was monitored via radioactivity detection, and the retention times of observed radiopeaks (tR,AMSEC) were determined via semi-automated peak integration. By means of calibration, retention times were translated into a ligand-specific raw apparent molecular weight (MWapp,raw) as a parameter to assess the extent of HSA binding (for calculation, see Equation (S6) in the Supplementary Materials). rhPSMA-7.3 served as an internal standard during AMSEC studies and was co-evaluated whenever new data were collected to assess the reproducibility of the method (n = 14).
For reference purposes, conventional SEC runs of HSA (100 µL, 3 mg/mL) and acetone (100 µL, 2% in PBS pH 7.4) with PBS (pH 7.4) as a mobile phase were executed. The retention time of HSA (tR,HSA) corresponded to the maximal MWapp,raw, theoretically observable in AMSEC runs in the case of continuous binding of a radioligand to HSA (equivalent to 100% HSA binding). The retention time of acetone (tR,acetone) served as a reference for a ligand with no interaction with HSA in AMSEC runs (equivalent to 0% HSA binding) and an actual physical molecular weight below the column fractionation range (this was the case for all investigated radioligands).
(§1) MWapp,raw values determined as described in Section 3.3.1. were normalized in order to account for ligand-specific influences on experimentally determined retention times and to establish quantitative comparability of the obtained MWapp,norm. values. The normalization was based on a SEC run (referred to as blank run) of a radioligand executed in analogy to the AMSEC run but using PBS (pH 7.4) without HSA as a mobile phase. The determined retention time tR,blank, together with the retention time tR,AMSEC from the AMSEC run, tR,HSA, and tR,acetone determined in Section 3.3.1, were used to calculate a normalized retention time tR,norm. for every radioligand (for formulae and details on the calculation, see Section 2. Results and Discussion). […]

[2] = Blank SEC run of radioligand (PBS pH 7.4 without HSA); type: physicochemical
Experimental: To validate this hypothesis, blank runs (PBS pH 7.4 as mobile phase) of the radioligands on the SEC column were performed. The resulting retention times were termed tR,blank and represent the ligand-specific retention time that would correspond to 0% HSA binding in the AMSEC experiment. […] We concluded that unspecific electrostatic interactions between the highly negatively charged radioligand and the agarose/dextran-based matrix of the superdex column are present and lead to an elution prior to the expected cut-off volume. Consequently, apart from the radioligand’s binding to HSA in the AMSEC run, the unspecific interactions with the column matrix contribute to the determined MWapp,raw, thus hampering its informative value. […]
as §1, with “The normalization was based on a SEC run (referred to as blank run) of a radioligand executed in analogy to the AMSEC run but using PBS (pH 7.4) without HSA as a mobile phase.” left out

[3] = Calculated glomerular sieving coefficients (GSCcalc) from MWapp,norm.; settings: from MWapp,norm. via sigmoidal fit of MW vs GSC of 12 human plasma proteins
Source text: Therefore, when comparing the MWapp,norm. of different radioligands, not only their relative difference but also the absolute values of MWapp,norm. are of importance. […] These GSCcalc determined for all the PSMA radioligands (Table 2, Figure 5) inherently account for the exponential nature of the relationship between their albumin-mediated MWapp,norm. and MW-dependent GF and could, therefore, be a useful parameter to estimate differences in blood clearance by means of GF. The GSC is defined as the ratio of a compound’s concentration in the glomerular filtrate to that in the blood; thus, a GSC of 1 represents unhindered filtration through the capillary membrane in the glomerulus, while a lower GSC corresponds to a restricted filtration and, thus, a prolonged circulatory half-life. […] As an example, a GSCcalc of 0.408 was determined for rhPSMA-7.3, while an almost three-fold smaller GSCcalc of 0.138 was determined for rhPSMA-7.4. […] This would constitute a dramatic physiological effect that, in its extent, could not be predicted only based on subtle differences in molecular structure and other conventionally determined in vitro parameters. We, therefore, believe that the MWapp,norm. and GSCcalc obtained by AMSEC could be important parameters that, already at the preclinical stage of development, could help in the selection of promising therapeutic radioligands with pharmacokinetic profiles suitable for patient application.
A sigmoidal fit of molecular weights (MWs, in kDa) and corresponding glomerular sieving coefficients (GSCs) of 12 human plasma proteins (data taken from Norden et al.) was executed using OriginPro software. A dose-response model based on Equation (6) was applied:(6) GSC=A1+A2−A1/1+10^(LOGx0−MW)·p.
The values of bottom asymptote A1 and top asymptote A2 were set to 4.2∙10^−5 (GSC of IgG, data taken from Norden et al.) and 1 (equaling complete sieving), respectively. Curve fitting gave the center parameter LOGx0 = 19.36833 and the Hill slope p = −0.12108. GSCcalc values were calculated via implementation of fitting parameters and the experimentally determined MWapp,norm. in Equation (6).

[4] = parameters: method as in PMID 34531260; settings: 177Lu-labeled, intrapatient comparison vs PSMA-I&T; cited from earlier work

T1 sequence (P02768 25-609): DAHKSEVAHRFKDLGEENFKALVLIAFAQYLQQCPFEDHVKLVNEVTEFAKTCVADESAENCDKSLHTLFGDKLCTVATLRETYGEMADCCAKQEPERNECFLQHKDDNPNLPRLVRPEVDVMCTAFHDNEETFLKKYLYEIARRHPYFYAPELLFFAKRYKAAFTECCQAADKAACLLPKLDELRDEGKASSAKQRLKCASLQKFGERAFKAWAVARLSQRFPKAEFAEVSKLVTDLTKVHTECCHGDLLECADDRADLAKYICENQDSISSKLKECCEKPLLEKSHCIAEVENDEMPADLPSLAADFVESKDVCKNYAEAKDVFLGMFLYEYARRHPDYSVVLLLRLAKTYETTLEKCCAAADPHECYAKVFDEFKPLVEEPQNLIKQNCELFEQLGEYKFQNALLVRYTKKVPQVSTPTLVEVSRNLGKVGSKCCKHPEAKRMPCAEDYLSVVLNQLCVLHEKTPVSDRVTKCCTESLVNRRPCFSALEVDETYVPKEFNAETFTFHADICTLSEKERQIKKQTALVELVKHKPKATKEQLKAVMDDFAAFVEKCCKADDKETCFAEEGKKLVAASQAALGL

SMILES | tR,AMSEC (retention time in AMSEC run) [1] | Relative reduction in MWapp,norm. compared to MWapp,raw ([1]; effect of normalization) | Retention factor k [1] | MWapp,raw (raw apparent molecular weight) [1] | MWapp,norm. (normalized apparent molecular weight) [1] | tR,norm. (normalized retention time) [1] | MWapp,raw in percentage of the MWapp,raw of rhPSMA-7.3 [1] | tR,blank (retention time in blank run) ([2]; PBS pH 7.4 without HSA as mobile phase, corresponds to 0% HSA binding) | GSCcalc (calculated glomerular sieving coefficient) [3] | MWapp,norm. higher than that of the stereoisomer ([1]; rhPSMA-7.2 vs rhPSMA-7.1, rhPSMA-10.1 vs rhPSMA-10.2) | mean MWapp,raw ([1]; mean ± SD, n = 14) | MW mathematically corresponding to tR,blank ([2]; PBS pH 7.4 without HSA) | tumor dose relative to PSMA-I&T [4]
O=C(O)CC[C@H](NC(=O)N[C@@H](CCCCNC(=O)CCCCCCC(=O)NCCCC[C@@H](NC(=O)[C@@H](Cc1ccccc1)NC(=O)[C@@H](Cc1ccc(O)c(I)c1)NC(=O)CCC(C(=O)O)N1CCN(CC(=O)O)CCN(CC(=O)O)CCN(CC(=O)O)CC1)C(=O)O)C(=O)O)C(=O)O (stereo partly shown) (177Lu complex, metal not drawn) [PSMA-I&T, reference compound] | 20.983 min | around 60% | 0.0013 and 0.001 | 5.4 kDa | 1.9 kDa | 24.792 min | approximately 18% | 20.995 min |  |  |  |  | 
CC(C)(C)[Si](F)(c1ccc(C(=O)NC[C@@H](NC(=O)CC[C@H](C(=O)O)N2CCN(CC(=O)[O-])CCN(CC(=O)[O-])CCN(CC(=O)[O-])CC2)C(=O)N[C@H](CCCCNC(=O)CCC(=O)NCCC[C@@H](NC(=O)CC[C@H](NC(=O)N[C@@H](CCC(=O)O)C(=O)O)C(=O)O)C(=O)O)C(=O)O)cc1)C(C)(C)C.[177Lu+3] [rhPSMA-7.1] | 15.240 min |  | 0.613 | 26.5 kDa | 17.1 kDa | 16.824 min |  |  | 0.655 |  |  |  | 
CC(C)(C)[Si](F)(c1ccc(C(=O)NC[C@H](NC(=O)CC[C@H](C(=O)O)N2CCN(CC(=O)[O-])CCN(CC(=O)[O-])CCN(CC(=O)[O-])CC2)C(=O)N[C@H](CCCCNC(=O)CCC(=O)NCCC[C@@H](NC(=O)CC[C@H](NC(=O)N[C@@H](CCC(=O)O)C(=O)O)C(=O)O)C(=O)O)C(=O)O)cc1)C(C)(C)C.[177Lu+3] [rhPSMA-7.2] | 14.564 min |  | 0.680 | 32.0 kDa | 21.7 kDa | 15.962 min |  |  | 0.344 | 27% |  |  | 
CC(C)(C)[Si](F)(c1ccc(C(=O)NC[C@@H](NC(=O)CC[C@@H](C(=O)O)N2CCN(CC(=O)[O-])CCN(CC(=O)[O-])CCN(CC(=O)[O-])CC2)C(=O)N[C@H](CCCCNC(=O)CCC(=O)NCCC[C@@H](NC(=O)CC[C@H](NC(=O)N[C@@H](CCC(=O)O)C(=O)O)C(=O)O)C(=O)O)C(=O)O)cc1)C(C)(C)C.[177Lu+3] [rhPSMA-7.3] | 14.722 min and 14.722 ^3 min |  | 0.667 ^1 | 30.6 ^3 kDa | 20.7 kDa and 20.7 ^1 kDa | 16.125 ^1 min |  |  | 0.408 |  | 30.6 kDa | 6.0 kDa | 2.4 fold
CC(C)(C)[Si](F)(c1ccc(C(=O)NC[C@H](NC(=O)CC[C@@H](C(=O)O)N2CCN(CC(=O)[O-])CCN(CC(=O)[O-])CCN(CC(=O)[O-])CC2)C(=O)N[C@H](CCCCNC(=O)CCC(=O)NCCC[C@@H](NC(=O)CC[C@H](NC(=O)N[C@@H](CCC(=O)O)C(=O)O)C(=O)O)C(=O)O)C(=O)O)cc1)C(C)(C)C.[177Lu+3] [rhPSMA-7.4] | 14.143 min |  | 0.729 | 36.0 kDa | 26.0 kDa | 15.316 min | ~120% |  | 0.138 |  |  |  | 
CC(C)(C)[Si](F)(c1ccc(C(=O)NC[C@H](NC(=O)CN2CCN(CC(=O)[O-])CCN(CC(=O)[O-])CCN(CC(=O)[O-])CC2)C(=O)N[C@H](CCCCNC(=O)CCC(=O)NCCC[C@@H](NC(=O)CC[C@H](NC(=O)N[C@@H](CCC(=O)O)C(=O)O)C(=O)O)C(=O)O)C(=O)O)cc1)C(C)(C)C.[177Lu+3] [rhPSMA-10.2] | 15.908 min |  | 0.543 | 22.0 kDa | 13.2 kDa | 17.736 min |  |  | 0.846 |  |  |  | 
